According to patent publication US20110230476A1, “PI3 KINASE INHIBITORS AND USES THEREOF” (AVILA THERAPEUTICS, INC., priority 2009, published 2011):

Molecular target: T1, PI3Kα (p110α/p85α) (Homo sapiens, UniProt P42336)
T1 construct: purchased BPS Bioscience (San Diego, Calif.) or Millipore (Billerica, Mass.)
Assay: HTRF assay, potency against active PI3Kα
Assay type: biochemical
Conditions: HTRF; [ATP]=50 μM, [di-C8-PIP2]=10 μM; 30 min pre-incubation; read-out: PI3Kα Inhibition
Experimental: Homogeneous Time Resolved Fluorescence (HTRF) Assay Protocol for Potency Assessment Against the Active Forms of PI3Kα, PI3Kβ, and PI3Kγ
The mechanics of the assay platform are best described by the vendor (Millipore, Billerica, Mass.) on their website at the following URL: www.millipore.com/coa/tech1/74jt4z.
Briefly, Stop solution (Stop A, #33-007 and Stop B, #33-009; 3:1 ratio) and Detection Mix (from DMC, #33-015 with DMA, #33-011 and DMB, #33-013; 18:1:1 ratio) were prepared as recommended by the manufacturer about 2 hrs prior to use. […] Lipid kinase reactions were started with the addition of 5 μL of ATP solution, mixed for 15 sec on a rotary plate shaker and incubated for 30-60 minutes at 25° C. Next, reactions were stopped with a 5 μL addition of Stop solution immediately followed by a 5 μL volume of Detection Mix. […] At the conclusion of each assay, the HTRF ratio from fluorescence emission values for each well was calculated and % Inhibition determined from averaged controls wells (+/−PI3K enzyme). % Inhibition values for each compound were then plotted against inhibitor concentration to estimate IC50 from log [Inhibitor] vs Response, Variable Slope model in GraphPad Prism from GraphPad Software (San Diego, Calif.).

T1 sequence (P42336 whole entry): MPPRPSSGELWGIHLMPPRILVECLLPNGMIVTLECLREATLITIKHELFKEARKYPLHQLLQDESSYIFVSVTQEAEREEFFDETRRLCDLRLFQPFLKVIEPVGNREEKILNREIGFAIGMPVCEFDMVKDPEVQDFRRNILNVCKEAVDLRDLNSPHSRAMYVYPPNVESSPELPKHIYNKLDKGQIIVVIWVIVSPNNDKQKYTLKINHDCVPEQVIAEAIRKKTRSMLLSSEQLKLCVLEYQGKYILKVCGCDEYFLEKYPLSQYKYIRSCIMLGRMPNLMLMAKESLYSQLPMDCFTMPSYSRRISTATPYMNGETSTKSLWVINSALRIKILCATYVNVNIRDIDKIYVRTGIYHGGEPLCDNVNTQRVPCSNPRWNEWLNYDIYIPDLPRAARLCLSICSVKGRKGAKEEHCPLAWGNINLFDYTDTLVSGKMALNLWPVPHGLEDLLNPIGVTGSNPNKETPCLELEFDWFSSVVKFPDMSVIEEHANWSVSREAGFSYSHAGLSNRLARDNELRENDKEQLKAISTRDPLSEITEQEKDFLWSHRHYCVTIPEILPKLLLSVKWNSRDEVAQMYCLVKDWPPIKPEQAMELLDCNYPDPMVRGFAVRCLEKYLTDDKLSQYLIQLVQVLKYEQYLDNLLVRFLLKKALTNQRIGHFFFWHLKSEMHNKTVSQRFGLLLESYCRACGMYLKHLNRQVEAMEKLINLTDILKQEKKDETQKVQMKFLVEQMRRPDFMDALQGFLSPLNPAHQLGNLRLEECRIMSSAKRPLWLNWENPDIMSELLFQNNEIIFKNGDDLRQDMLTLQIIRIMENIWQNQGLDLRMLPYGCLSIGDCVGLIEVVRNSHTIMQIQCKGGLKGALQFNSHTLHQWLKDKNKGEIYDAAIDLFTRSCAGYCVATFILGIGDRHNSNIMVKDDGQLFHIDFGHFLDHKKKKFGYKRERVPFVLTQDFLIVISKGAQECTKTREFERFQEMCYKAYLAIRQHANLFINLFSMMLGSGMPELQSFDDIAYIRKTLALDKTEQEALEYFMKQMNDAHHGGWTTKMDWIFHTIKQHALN
T1 sequence (P27986 whole entry partner): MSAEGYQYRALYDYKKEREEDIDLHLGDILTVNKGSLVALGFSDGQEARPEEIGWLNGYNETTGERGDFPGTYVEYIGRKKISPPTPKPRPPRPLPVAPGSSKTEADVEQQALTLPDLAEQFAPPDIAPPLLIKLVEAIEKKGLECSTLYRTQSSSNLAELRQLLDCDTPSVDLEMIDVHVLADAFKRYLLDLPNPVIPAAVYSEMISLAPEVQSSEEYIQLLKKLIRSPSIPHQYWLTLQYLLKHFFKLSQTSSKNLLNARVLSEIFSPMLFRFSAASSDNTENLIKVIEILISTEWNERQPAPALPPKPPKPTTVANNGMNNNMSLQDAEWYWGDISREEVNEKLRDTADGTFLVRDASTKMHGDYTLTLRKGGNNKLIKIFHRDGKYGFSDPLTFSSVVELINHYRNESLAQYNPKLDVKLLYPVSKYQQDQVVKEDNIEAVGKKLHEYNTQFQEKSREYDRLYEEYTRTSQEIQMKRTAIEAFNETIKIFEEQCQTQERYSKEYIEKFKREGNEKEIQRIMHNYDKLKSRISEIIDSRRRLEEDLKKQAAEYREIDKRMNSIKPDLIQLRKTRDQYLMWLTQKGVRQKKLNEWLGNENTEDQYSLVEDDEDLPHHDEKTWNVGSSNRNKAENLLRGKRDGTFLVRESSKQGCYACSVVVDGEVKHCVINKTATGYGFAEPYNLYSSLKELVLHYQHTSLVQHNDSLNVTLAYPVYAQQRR

First: C=CC(=O)NCCC(=O)N1CC=C(c2cc3nc(-c4cccc5[nH]ncc45)nc(N4CCOCC4)c3s2)CC1 [II-a-95, N-(3-(4-(2-(1H-indazol-4-yl)-4-morpholinothieno[3,2-d]pyrimidin-6-yl)-5,6-dihydropyridin-1(2H)-yl)-3-oxopropyl)acrylamide]
Second: C=CC(=O)Nc1cccc(C(=O)N2CC=C(c3cc4nc(-c5cnc(N)nc5)nc(N5CCOCC5)c4s3)CC2)c1 [II-a-171, N-(3-(4-(2-(2-aminopyrimidin-5-yl)-4-morpholinothieno[3,2-d]pyrimidin-6-yl)-1,2,3,6-tetrahydropyridine-1-carbonyl)phenyl)acrylamide]
The IC50 of the first is higher: over 1 µM for the first, under 0.01 µM for the second.

`COc1ccc(-c2nn(C3CCN(C(=O)CCCC(=O)/C=C/c4ccccc4)CC3)c3ncnc(N)c23)cc1OC` [XI-5] and `CCCC(=O)CCC(=O)N1CCC(n2nc(-c3ccc(OC)c(OC)c3)c3c(N)ncnc32)CC1` [XI^R-1, 1-(4-(4-amino-3-(3,4-dimethoxyphenyl)-1H-pyrazolo[3,4-d]pyrimidin-1-yl)piperidin-1-yl)heptane-1,4-dione] cannot be ordered by IC50: over 1 µM for the first, over 1 µM for the second.

First: CC(C)=CC(=O)CN1CCN(c2ccc(-c3cc(-c4cnc(N)nc4)nc(N4CCOCC4)c3)cn2)CC1 [XII-27, 1-(4-(2′-(2-aminopyrimidin-5-yl)-6′-morpholino-3,4′-bipyridin-6-yl)piperazin-1-yl)-4-methylpent-3-en-2-one]
Second: CC(C)CC(=O)C(=O)N1CCN(c2ccc(-c3cc(-c4cnc(N)nc4)nc(N4CCOCC4)c3)cn2)CC1 [XII-29, 1-(4-(2′-(2-aminopyrimidin-5-yl)-6′-morpholino-3,4′-bipyridin-6-yl)piperazin-1-yl)-4-methylpentane-1,2-dione]
The IC50 of the first is lower: 0.01 to 0.1 µM for the first, 0.1 to 1 µM for the second. The first is the more potent here.

First: CC(C)=CC(=O)CCc1ccc(C#Cc2cc(-c3cnc(N)nc3)nc(N3CCOCC3)c2)cc1 [XII-21, 1-(4-((2-(2-aminopyrimidin-5-yl)-6-morpholinopyridin-4-yl)ethynyl)phenyl)-5-methylhex-4-en-3-one]
Second: CC(C)=CC(=O)CCCC(=O)NCC#Cc1cc(-c2cnc(N)nc2)nc(N2CCOCC2)c1 [XII-20, N-(3-(2-(2-aminopyrimidin-5-yl)-6-morpholinopyridin-4-yl)prop-2-ynyl)-7-methyl-5-oxooct-6-enamide]
The IC50 of the first is higher: over 1 µM for the first, 0.1 to 1 µM for the second. The second is the more potent here.

First: C=CC(=O)Nc1ccc(C(=O)N2CC=C(c3cc4nc(-c5cccc(O)c5)nc(N5CCOCC5)c4s3)CC2)cc1OCCCN [II-a-155, N-(2-(3-aminopropoxy)-4-(4-(2-(3-hydroxyphenyl)-4-morpholinothieno[3,2-d]pyrimidin-6-yl)-1,2,3,6-tetrahydropyridine-1-carbonyl)phenyl)acrylamide]
Second: C=CC(=O)NCc1ccc(-c2cc3nc(-c4cccc(O)c4)nc(N4CCOCC4)c3s2)cc1 [II-a-65, N-(4-(2-(3-hydroxyphenyl)-4-morpholinothieno[3,2-d]pyrimidin-6-yl)benzyl)acrylamide]
The IC50 of the first is higher: 0.01 to 0.1 µM for the first, under 0.01 µM for the second. The second is the more potent here.

`C=C(C)C(=O)CCC(=O)N1CCC(C#Cc2cc3nc(-c4cccc(O)c4)nc(N4CCOCC4)c3s2)CC1` [II-a-103, 1-(4-((2-(3-hydroxyphenyl)-4-morpholinothieno[3,2-d]pyrimidin-6-yl)ethynyl)piperidin-1-yl)-5-methylhex-5-ene-1,4-dione] and `C=C(C)C(=O)CCC(=O)N1CCC(O)(C#Cc2cc3nc(-c4cccc(O)c4)nc(N4CCOCC4)c3s2)CC1` [II-a-105, 1-(4-hydroxy-4-((2-(3-hydroxyphenyl)-4-morpholinothieno[3,2-d]pyrimidin-6-yl)ethynyl)piperidin-1-yl)-5-methylhex-5-ene-1,4-dione] cannot be ordered by IC50: under 0.01 µM for the first, under 0.01 µM for the second.

Compared with `C=CC(=O)Nc1ccc(OCc2cc3nc(-c4cnc(N)nc4)cc(N4CCOCC4)c3s2)cc1` [II-g-8, N-(4-((5-(2-aminopyrimidin-5-yl)-7-morpholinothieno[3,2-b]pyridin-2-yl)methoxy)phenyl)acrylamide], `C=CC(=O)Nc1ccc(CCNC(=O)c2cc(-c3cccc4[nH]ncc34)nc(N3CCOCC3)c2)cc1` [XII-13, N-(4-acrylamidophenethyl)-2-(1H-indazol-4-yl)-6-morpholinoisonicotinamide] is higher in IC50: 0.1 to 1 µM for the first, over 1 µM for the second.

First: CC(C)=CC(=O)CCCCC#Cc1cc(-c2cnc(N)cc2C(F)(F)F)nc(N2CCOCC2)c1 [XII-8, 10-(6′-amino-6-morpholino-4′-(trifluoromethyl)-2,3′-bipyridin-4-yl)-2-methyldec-2-en-9-yn-4-one]
Second: CC(C)=CC(=O)CCCC(=O)N1CCN(c2cc(-c3cnc(N)nc3)nc(N3CCOCC3)c2)CC1 [XII-30, 1-(4-(2-(2-aminopyrimidin-5-yl)-6-morpholinopyridin-4-yl)piperazin-1-yl)-7-methyloct-6-ene-1,5-dione]
The IC50 of the first is higher: over 1 µM for the first, 0.1 to 1 µM for the second.

`C/C=C/C(=O)CCCC(=O)N1CCN(c2ccc(-c3ccnc4ccc(/C=C5\SC(=O)NC5=O)cc34)cn2)CC1` [V-14, (Z)-5-((4-(6-(4-((E)-5-oxooct-6-enoyl)piperazin-1-yl)pyridin-3-yl)quinolin-6-yl)methylene)thiazolidine-2,4-dione] and `C/C=C/C(=O)CCC(=O)N1Cc2ccc(-c3cc4nc(-c5cccc(O)c5)nc(N5CCOCC5)c4s3)cc2C1` [II-a-68, (E)-1-(5-(2-(3-hydroxyphenyl)-4-morpholinothieno[3,2-d]pyrimidin-6-yl)isoindolin-2-yl)hept-5-ene-1,4-dione] cannot be ordered by IC50: under 0.01 µM for the first, under 0.01 µM for the second.

`CC(C)(C)/C=C/C(=O)CCC(=O)N1CCN(Cc2cc3nc(-c4cccc5[nH]ncc45)nc(N4CCOCC4)c3s2)CC1` [II-a-131, (E)-1-(4-((2-(1H-indazol-4-yl)-4-morpholinothieno[3,2-d]pyrimidin-6-yl)methyl)piperazin-1-yl)-7,7-dimethyloct-5-ene-1,4-dione] and `C/C(=C\c1ccccn1)C(=O)CCC(=O)N1CCN(Cc2cc3nc(-c4cccc5[nH]ncc45)nc(N4CCOCC4)c3s2)CC1` [II-a-167, (E)-1-(4-((2-(1H-indazol-4-yl)-4-morpholinothieno[3,2-d]pyrimidin-6-yl)methyl)piperazin-1-yl)-5-methyl-6-(pyridin-2-yl)hex-5-ene-1,4-dione] fall in the same range of IC50: 0.1 to 1 µM for the first, 0.1 to 1 µM for the second.

Compared with `C=CC(=O)N(C)CC(=O)N1CCC(n2nc(-c3ccc(OC)c(OC)c3)c3c(N)ncnc32)CC1` [XI-2, N-(2-(4-(4-amino-3-(3,4-dimethoxyphenyl)-1H-pyrazolo[3,4-d]pyrimidin-1-yl)piperidin-1-yl)-2-oxoethyl)-N-methylacrylamide], `CC(C)=CC(=O)C(=O)N1CCN(c2ccc(-c3cc(-c4cnc(N)nc4)nc(N4CCOCC4)c3)cc2)CC1` [XII-24, 1-(4-(4-(2-(2-aminopyrimidin-5-yl)-6-morpholinopyridin-4-yl)phenyl)piperazin-1-yl)-4-methylpent-3-ene-1,2-dione] is lower in IC50: over 1 µM for the first, 0.01 to 0.1 µM for the second.

First: C/C=C/C(=O)CCC(=O)N1CCC2(CC1)CN(c1cc(-c3cnc(N)nc3)nc(N3CCOCC3)c1)C2 [XII-40, (E)-1-(2-(2-(2-aminopyrimidin-5-yl)-6-morpholinopyridin-4-yl)-2,7-diazaspiro[3.5]nonan-7-yl)hept-5-ene-1,4-dione]
Second: C/C=C/C(=O)CCC(=O)NCc1cccc(-c2cc3nc(-c4cccc(O)c4)nc(N4CCOCC4)c3s2)c1 [II-a-79, (E)-N-(3-(2-(3-hydroxyphenyl)-4-morpholinothieno[3,2-d]pyrimidin-6-yl)benzyl)-4-oxohept-5-enamide]
The IC50 of the first is higher: 0.1 to 1 µM for the first, under 0.01 µM for the second.
